# Measured values as given in ChEMBL document CHEMBL1201862, “PubChem BioAssay data set” (2004).
# pIC50: −log10 of the molar value. Active and inactive are the calls of the source.
# Tests used:
# Cytochrome P450 2C9 = Cytochrome P450 2C9 (Homo sapiens, UniProt P11712)
# Cytochrome P450 2D6 = Cytochrome P450 2D6 (Homo sapiens, UniProt P10635);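 note: CYP2D6 member of a cytochrome P450 panel assay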
# Insulin-degrading enzyme [1] = target: T1, Insulin-degrading enzyme (Homo sapiens, UniProt P14735); test: cellular IDE activation of Abeta substrate cleavage – fluorescence polarization, HEK cells, dose response (AID 588439); type: functional, cell-based
# T1 sequence (P14735 whole entry): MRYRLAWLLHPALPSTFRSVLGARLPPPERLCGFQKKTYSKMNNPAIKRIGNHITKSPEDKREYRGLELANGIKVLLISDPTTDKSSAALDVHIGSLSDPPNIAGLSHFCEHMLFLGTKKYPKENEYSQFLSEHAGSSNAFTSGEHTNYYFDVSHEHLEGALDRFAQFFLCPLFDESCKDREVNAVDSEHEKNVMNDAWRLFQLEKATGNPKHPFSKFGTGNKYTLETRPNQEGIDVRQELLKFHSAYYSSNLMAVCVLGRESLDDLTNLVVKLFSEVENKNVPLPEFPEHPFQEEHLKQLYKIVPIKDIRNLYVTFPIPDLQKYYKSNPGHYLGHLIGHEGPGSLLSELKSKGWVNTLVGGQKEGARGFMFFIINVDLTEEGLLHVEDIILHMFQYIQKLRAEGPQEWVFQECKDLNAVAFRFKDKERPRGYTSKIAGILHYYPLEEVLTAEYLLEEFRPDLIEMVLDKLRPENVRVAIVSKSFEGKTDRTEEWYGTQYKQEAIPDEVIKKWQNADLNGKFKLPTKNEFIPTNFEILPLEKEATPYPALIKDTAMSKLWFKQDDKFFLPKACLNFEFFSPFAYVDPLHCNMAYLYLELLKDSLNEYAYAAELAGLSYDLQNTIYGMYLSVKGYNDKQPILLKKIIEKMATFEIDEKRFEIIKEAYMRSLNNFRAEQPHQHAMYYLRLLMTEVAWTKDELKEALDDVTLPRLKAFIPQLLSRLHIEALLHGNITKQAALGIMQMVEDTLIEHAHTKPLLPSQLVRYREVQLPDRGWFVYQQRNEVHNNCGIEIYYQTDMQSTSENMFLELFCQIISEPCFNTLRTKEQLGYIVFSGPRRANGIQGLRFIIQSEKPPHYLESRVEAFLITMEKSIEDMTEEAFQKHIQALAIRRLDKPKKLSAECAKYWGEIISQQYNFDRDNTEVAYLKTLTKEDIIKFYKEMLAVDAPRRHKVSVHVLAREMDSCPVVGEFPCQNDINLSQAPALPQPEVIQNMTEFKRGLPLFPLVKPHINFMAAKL
# HEK293 [2] = test: membrane integrity loss in HEK cells – cell-based, fluorescence, cytotoxicity control for IDE activator project, dose response (AID 588440); type: functional, Homo sapiens; details: Homo sapiens, HEK293;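 note: cytotoxicity by LDH release measuring loss of membrane integrity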
# Insulin-degrading enzyme [3] = target: T1, Insulin-degrading enzyme; test: recombinant IDE activation, cell-free – biochemical, fluorescence polarization, counter-screen for IDE activator project, dose response (AID 588681)
# HEK293 [4] = test: optical interference in Abeta FP readout, dose response, artefact control for IDE activator project, biochemical, fluorescence polarization (AID 588442); type: functional, cell-based; details: Homo sapiens
# Vero [5] = test: cells; type: functional, cell-based; details: Chlorocebus sabaeus
# [6] = viability of uninfected HEp-2 cells – cell-based, HTS, cytotoxicity control for RSV inhibitor project, dose response (AID 2410); type: functional; details: human respiratory syncytial virus
# Exodeoxyribonuclease V = target: T2, Exodeoxyribonuclease V (Escherichia coli (strain K12), UniProt P04993+P07648+P08394); test: RecBCD inhibition via phage-restricted bacterial growth – absorbance, V66 E. coli, mutant T4 phage, counter-screen for AddAB inhibitor project, dose response (AID 492957); type: functional, cell-based, Escherichia coli str. K-12 substr. MG1655
# T2 sequence (P04993 whole entry): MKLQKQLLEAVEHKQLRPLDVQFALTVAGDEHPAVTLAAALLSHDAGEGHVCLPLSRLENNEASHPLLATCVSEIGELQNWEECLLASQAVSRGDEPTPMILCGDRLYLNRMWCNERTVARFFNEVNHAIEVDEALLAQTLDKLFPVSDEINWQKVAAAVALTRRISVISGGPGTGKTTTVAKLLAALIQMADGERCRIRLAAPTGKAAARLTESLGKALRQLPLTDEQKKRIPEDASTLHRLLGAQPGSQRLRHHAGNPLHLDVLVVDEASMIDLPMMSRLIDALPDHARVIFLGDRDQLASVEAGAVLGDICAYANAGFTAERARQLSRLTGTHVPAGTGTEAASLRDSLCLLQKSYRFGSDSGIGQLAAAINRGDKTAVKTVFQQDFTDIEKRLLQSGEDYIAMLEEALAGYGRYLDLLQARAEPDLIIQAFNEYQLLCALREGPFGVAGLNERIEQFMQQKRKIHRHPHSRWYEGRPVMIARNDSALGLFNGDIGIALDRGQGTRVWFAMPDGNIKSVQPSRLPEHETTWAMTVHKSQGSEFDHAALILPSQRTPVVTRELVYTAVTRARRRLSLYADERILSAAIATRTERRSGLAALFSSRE
# T2 sequence (P07648 whole entry): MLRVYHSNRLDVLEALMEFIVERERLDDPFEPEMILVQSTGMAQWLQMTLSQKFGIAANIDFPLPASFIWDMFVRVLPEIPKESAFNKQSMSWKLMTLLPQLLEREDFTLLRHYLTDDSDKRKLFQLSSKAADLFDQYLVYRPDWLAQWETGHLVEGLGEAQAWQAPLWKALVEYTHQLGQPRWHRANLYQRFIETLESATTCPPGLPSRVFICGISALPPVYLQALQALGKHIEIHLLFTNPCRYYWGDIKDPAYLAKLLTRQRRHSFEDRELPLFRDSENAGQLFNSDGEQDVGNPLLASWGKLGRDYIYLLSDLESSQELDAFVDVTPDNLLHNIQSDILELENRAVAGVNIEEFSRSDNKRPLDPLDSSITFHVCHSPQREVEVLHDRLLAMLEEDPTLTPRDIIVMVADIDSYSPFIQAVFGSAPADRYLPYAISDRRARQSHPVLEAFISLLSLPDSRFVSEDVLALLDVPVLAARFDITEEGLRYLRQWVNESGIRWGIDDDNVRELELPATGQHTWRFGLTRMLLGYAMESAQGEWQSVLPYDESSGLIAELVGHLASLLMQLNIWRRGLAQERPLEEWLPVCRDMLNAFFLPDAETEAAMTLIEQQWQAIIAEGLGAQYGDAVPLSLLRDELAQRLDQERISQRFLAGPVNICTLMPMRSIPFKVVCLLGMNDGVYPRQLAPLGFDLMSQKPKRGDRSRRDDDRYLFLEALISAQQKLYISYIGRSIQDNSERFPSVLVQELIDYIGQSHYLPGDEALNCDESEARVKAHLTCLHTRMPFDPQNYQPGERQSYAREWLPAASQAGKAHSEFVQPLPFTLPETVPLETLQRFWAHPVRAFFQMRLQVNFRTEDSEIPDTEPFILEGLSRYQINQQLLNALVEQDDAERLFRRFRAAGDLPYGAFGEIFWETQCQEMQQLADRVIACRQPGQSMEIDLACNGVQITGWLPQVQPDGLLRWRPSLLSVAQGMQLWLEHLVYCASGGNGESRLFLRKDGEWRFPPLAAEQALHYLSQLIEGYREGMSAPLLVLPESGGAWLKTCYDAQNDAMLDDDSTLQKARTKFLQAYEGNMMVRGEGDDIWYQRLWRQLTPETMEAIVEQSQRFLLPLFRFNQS
# T2 sequence (P08394 whole entry): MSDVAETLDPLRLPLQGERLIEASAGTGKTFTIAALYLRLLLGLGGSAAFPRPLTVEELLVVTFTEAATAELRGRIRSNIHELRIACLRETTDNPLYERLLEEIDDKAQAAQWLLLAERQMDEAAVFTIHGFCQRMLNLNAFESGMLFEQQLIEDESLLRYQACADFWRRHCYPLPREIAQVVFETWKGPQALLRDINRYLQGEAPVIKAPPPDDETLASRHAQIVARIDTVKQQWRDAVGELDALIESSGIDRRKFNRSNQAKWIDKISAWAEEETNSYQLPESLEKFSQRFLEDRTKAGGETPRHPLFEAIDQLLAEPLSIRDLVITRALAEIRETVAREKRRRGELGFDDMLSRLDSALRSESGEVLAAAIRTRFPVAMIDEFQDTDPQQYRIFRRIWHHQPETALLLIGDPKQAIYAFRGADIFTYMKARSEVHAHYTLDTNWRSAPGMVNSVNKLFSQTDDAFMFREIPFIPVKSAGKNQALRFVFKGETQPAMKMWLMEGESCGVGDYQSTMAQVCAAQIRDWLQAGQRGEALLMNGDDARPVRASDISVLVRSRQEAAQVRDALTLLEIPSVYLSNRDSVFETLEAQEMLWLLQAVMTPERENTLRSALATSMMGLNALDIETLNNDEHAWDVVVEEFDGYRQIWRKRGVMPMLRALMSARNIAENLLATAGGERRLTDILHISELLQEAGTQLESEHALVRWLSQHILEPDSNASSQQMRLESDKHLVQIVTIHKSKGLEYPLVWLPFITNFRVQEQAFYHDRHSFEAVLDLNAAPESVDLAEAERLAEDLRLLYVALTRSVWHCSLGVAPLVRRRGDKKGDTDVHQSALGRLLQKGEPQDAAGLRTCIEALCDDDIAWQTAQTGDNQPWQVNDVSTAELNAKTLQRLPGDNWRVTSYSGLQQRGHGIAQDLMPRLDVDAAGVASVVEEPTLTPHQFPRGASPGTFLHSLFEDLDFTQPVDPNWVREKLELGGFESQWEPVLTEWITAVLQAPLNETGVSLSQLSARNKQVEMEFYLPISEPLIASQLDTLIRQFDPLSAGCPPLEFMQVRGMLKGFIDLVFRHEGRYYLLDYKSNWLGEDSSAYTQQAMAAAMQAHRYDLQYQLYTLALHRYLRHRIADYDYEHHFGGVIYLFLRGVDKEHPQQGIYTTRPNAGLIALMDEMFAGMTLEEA
# Nonstructural protein 1 = Nonstructural protein 1 (Influenza A virus, UniProt Q194T2); type: functional, Influenza A virus (A/California/07/2009(H1N1))
# Beta-galactosidase = Beta-galactosidase (Escherichia coli, UniProt Q8VNN2); type: functional
# [7] = target: T3, Kappa-type opioid receptor (Homo sapiens, UniProt P41145); type: functional
# [8] = target: T3, Kappa-type opioid receptor; type: functional; remark: listed apart in the source
# [9] = target: T4, Heat shock factor protein 1 (Mus musculus, UniProt P38532); test: decrease of HSF1-responsive luciferase luminescence – cell-based, NIH3T3, dose retest, confirmation (AID 2382); type: functional;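 note: NIH3T3 fibroblasts with HSF1-driven luciferase reporter stressed by proteasome inhibitor MG132; luminescence from HSF1-driven luciferase expression after 8 hours of MG132 stress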
# T4 sequence (P38532 whole entry): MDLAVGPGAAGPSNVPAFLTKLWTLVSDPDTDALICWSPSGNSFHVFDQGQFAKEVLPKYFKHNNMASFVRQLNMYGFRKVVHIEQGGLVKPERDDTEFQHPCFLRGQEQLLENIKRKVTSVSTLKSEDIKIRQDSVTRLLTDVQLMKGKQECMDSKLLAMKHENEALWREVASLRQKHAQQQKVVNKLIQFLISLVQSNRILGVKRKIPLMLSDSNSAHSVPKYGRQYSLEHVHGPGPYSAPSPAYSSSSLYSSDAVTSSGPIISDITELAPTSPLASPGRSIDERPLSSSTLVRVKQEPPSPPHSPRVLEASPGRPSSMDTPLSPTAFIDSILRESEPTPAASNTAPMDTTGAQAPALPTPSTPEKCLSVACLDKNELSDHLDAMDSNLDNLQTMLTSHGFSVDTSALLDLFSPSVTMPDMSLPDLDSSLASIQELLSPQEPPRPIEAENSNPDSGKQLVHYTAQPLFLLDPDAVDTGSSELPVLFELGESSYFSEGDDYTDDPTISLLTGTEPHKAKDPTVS
# [10] = Counterscreen for AddAB inhibitors: absorbance-based bacterial cell-based high throughput dose response assay for inhibitors of bacterial viability. [Related pubchem assays (depositor defined):AID435030, AID449728, AID449731, AID488942, AID488955, AID488956]; type: functional
# Vero [11] = test: viability of Vero cells under compound – cytotoxicity control for flavivirus capping enzyme inhibitors (AID 588742); type: functional; details: Chlorocebus sabaeus
# Vero [12] = test: cells; type: functional; details: Chlorocebus sabaeus
# [13] = target: Glucose-6-phosphate 1-dehydrogenase (Homo sapiens, UniProt P11413); test: inhibition of Homo sapiens G6PD, dose series – biochemical, fluorescence, selectivity assay for P. falciparum G6PD inhibitor project, dose response (AID 504792); type: functional
# Sequence of Glucose-6-phosphate 1-dehydrogenase (P11413 whole entry): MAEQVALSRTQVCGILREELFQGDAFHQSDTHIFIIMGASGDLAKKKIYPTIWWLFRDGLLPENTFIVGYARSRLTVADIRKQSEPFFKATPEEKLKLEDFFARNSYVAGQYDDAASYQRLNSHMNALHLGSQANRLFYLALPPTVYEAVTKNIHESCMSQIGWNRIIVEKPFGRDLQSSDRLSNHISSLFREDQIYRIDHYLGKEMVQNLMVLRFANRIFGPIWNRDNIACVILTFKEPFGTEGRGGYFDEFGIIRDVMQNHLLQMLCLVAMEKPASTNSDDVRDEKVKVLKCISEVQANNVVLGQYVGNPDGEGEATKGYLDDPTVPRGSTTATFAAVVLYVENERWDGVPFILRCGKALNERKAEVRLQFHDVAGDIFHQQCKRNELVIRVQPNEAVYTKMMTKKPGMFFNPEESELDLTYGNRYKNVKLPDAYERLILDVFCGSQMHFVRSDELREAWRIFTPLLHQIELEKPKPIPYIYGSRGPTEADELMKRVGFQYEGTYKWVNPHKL
# Sequence of Cytochrome P450 2C9 (P11712 whole entry): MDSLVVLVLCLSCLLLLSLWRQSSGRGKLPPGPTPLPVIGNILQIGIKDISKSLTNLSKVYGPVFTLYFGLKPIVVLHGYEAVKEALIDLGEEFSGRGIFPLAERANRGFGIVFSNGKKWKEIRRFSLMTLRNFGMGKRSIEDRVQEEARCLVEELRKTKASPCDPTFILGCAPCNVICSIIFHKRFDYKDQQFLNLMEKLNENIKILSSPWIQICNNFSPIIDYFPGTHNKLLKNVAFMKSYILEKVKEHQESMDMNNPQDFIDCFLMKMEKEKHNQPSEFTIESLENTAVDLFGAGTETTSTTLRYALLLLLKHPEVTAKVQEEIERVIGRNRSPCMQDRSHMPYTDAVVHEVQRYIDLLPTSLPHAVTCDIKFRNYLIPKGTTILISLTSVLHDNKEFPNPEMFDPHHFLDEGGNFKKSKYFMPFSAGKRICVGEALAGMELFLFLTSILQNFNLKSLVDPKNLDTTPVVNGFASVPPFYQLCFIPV
# T3 sequence (P41145 whole entry): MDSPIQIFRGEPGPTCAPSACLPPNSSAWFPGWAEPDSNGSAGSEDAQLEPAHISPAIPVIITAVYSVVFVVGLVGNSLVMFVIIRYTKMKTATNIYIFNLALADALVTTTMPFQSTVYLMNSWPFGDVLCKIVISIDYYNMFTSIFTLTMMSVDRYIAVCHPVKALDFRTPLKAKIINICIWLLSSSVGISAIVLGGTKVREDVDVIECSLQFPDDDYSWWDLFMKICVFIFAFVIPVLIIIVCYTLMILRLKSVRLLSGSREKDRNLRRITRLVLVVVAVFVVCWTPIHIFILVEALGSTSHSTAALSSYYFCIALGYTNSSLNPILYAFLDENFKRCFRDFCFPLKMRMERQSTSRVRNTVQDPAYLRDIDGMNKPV
# Sequence of Beta-galactosidase (Q8VNN2 whole entry): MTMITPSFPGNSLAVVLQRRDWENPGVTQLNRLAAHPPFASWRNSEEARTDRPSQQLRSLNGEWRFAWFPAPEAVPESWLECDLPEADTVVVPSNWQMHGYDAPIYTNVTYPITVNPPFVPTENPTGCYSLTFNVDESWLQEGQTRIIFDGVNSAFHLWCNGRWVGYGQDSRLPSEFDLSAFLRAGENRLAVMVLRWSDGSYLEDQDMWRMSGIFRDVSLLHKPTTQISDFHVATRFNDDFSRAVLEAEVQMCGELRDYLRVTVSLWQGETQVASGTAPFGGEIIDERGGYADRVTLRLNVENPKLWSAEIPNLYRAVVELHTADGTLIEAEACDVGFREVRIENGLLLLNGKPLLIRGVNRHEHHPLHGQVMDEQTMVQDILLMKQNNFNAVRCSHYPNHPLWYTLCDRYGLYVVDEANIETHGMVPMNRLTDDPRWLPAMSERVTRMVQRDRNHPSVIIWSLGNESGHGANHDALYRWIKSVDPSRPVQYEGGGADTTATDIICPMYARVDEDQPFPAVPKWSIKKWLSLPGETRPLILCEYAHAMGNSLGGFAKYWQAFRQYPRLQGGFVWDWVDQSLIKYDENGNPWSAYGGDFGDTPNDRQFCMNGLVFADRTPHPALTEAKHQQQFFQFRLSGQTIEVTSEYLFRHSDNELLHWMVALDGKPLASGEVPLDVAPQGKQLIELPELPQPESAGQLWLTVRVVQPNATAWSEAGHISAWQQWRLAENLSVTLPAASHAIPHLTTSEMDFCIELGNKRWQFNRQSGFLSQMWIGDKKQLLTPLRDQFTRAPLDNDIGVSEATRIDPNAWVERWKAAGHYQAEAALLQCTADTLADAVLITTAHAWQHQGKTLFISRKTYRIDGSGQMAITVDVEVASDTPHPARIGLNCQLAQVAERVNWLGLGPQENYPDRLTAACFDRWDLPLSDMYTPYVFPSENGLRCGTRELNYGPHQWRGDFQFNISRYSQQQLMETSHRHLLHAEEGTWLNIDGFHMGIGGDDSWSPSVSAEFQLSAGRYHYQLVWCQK
# Sequence of Nonstructural protein 1 (Q194T2 whole entry): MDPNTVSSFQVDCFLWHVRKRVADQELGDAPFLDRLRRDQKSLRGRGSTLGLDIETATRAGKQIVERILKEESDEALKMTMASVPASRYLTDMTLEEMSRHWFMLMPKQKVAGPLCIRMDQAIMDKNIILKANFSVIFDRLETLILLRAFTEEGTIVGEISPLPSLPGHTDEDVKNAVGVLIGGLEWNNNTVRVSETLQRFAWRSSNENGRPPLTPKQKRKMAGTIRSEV
# Sequence of Cytochrome P450 2D6 (P10635 whole entry): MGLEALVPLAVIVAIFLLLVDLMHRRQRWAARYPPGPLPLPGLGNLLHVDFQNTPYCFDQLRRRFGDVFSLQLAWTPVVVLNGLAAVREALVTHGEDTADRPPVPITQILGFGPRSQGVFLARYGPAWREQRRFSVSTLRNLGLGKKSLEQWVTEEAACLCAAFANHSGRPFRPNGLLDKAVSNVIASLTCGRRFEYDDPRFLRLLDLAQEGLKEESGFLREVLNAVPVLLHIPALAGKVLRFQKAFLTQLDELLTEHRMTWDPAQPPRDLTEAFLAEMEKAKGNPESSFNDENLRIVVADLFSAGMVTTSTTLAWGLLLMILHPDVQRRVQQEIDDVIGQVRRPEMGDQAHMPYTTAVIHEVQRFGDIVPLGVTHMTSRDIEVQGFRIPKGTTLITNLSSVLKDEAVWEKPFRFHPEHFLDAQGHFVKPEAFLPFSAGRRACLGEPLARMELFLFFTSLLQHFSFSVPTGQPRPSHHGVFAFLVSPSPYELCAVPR
structure (smiles),measurement,setting,value
CCN1C(=O)/C(=C2\SC(N3CCCCC3)=NC2=O)c2ccccc21,AC50,Cytochrome P450 2C9,inconclusive
same,AC50,Cytochrome P450 2D6,3.16 µM (inconclusive)
CSc1nc(Cl)cc(N(CCO)CCO)n1,AC50,Cytochrome P450 2C9,inconclusive
CCn1c(=O)c([N+](=O)[O-])c(NCc2ccc3c(c2)OCO3)c2ccccc21,EC50,Insulin-degrading enzyme [1],> 54.7 µM (inactive)
same,IC50,HEK293 [2],> 89.2 µM (inactive)
same,EC50,Insulin-degrading enzyme [3],> 54.7 µM (inactive)
same,EC50,HEK293 [4],> 55.9 µM (inactive)
CN(Cc1nnc(S)n1C)S(=O)(=O)c1ccccc1,AC50,Cytochrome P450 2C9,inconclusive
O=C(O)c1cc(-c2ccc3ccccc3c2)nc2ccc(F)cc12,IC50,cells,19.2 µM (active)
same,IC50,Vero [5],> 25 µM (active)
same,CC50,[6],12.1 µM (active)
O=C(CSC1=NNC(c2ccccn2)S1)Nc1ccccc1 (stereo not given),IC50,Exodeoxyribonuclease V,> 118 µM (inactive)
same,IC50,Nonstructural protein 1,0.986 µM (active)
same,EC50,Beta-galactosidase,> 31.5 µM (inactive)
same,pIC50,[7],< 4.49
same,IC50,[8],> 31.5 µM (inactive)
same,EC50,[9],3.04 µM (active)
same,IC50,[10],> 118 µM (inactive)
CN=c1ccc(Br)cc(C(=O)/C=C/c2cccc(Cl)c2Cl)c1O,CC50,Vero [11],18 µM (active)
same,CC50,Vero [12],9.23 µM (active)
same,IC50,Vero [5],> 25 µM (active)
O=C1Nc2ccccc2C2=NC(CN3CCN(c4cccc(Cl)c4)CC3)CN12 (stereo not given),AC50,Cytochrome P450 2C9,inconclusive
CC(=O)Nc1cc([N+](=O)[O-])ccc1OCc1ccccc1,IC50,[13],> 80 µM (inactive)
O=C(O)CC1SC(N/N=C/c2ccccn2)=NC1=O (stereo not given),IC50,Exodeoxyribonuclease V,> 118 µM (inactive)
same,IC50,[10],> 118 µM (inactive)
